Experimental data: a melting point compilation (Tetko et al.; mined from patent text by program, amines drawn as free bases though some values may be those of a salt)

Structure (SMILES)	melting point [°C]
COc1cc(N)ccc1S(=O)(=O)n1c(=O)n(C2CCCCCC2)c2cc(Cl)ccc21	219
COC12CC(C)(C)C(O1)C(OC(=O)c1ccc([N+](=O)[O-])cc1)C=C2C (configuration not stated)	140 to 141
CCCCCCCCCCCC(CC(=O)O)OC(C)=O (racemic)	37
N#Cc1c(CF)nn(-c2c(Cl)cc(C(F)(F)F)cc2Cl)c1N	139 to 141
O=S(=O)(Nc1cc(-c2ncc(C(F)(F)F)cc2Cl)ccc1Cl)c1ccc(Cl)cc1	156 to 157
C=C(CCCC(=O)N1CCC[C@@H](C(=O)OC(C)(C)C)N1)C(=O)OCC	63 to 65
NS(=O)(=O)c1ccc(-c2cn(-c3nc(-c4ccc(F)cc4)cc(C(F)(F)F)n3)cn2)s1	244
Cc1ccc(C2c3c(C)c(N4CCN(c5ccccc5[N+](=O)[O-])CC4)c(C)c(C)c3OC2(C)C)cc1 (configuration not stated)	178 to 180
CC(C)c1cc(C=C2C(=O)NC(=O)N2C)cc(C(C)C)c1O	197 to 208
CC(C)ON=Cc1cc(-n2c(=O)cc(C(F)(F)F)n(C)c2=O)ccc1Cl	105 to 107
CCOC(=O)CCC(C)C1CC=C2C3=C(CCC21C)C1(C)CCC(O)C(C)(C)C1CC3 (configuration not stated)	122 to 124
CCOC(=O)N1CCSC1C1=C(C)NC(=O)CS1 (configuration not stated)	146 to 147
Clc1ccc2nc(-c3ccco3)c(I)n2n1	260 to 263
Cn1c(=O)sc2cc(N3C[C@H](CN)OC3=O)ccc21	217
CC(C(=S)c1ccnc(NC=O)c1)S(C)=O (configuration not stated)	123 to 125
CCOC(=O)c1c(C=O)c2c(Cl)cc(Cl)cc2n1C(=O)OC(C)(C)C	141
COc1ccc(-c2ocnc2-c2cc(OC)c(N)c(OC)c2)cc1O	126 to 130
O=C(O)c1cn(C2CC2)c2c(CO)c(N3CCNCC3)c(F)cc2c1=O	149 to 152
CCOC(=O)C(=CN(C)C1(CO)CC1)C(=O)c1c(F)c(F)c(F)c(F)c1F	74.5 to 76
COc1ccc2c(c1)c(C(=O)C(=O)NC1=CC(=O)OC1)cn2Cc1ccc(Cl)cc1	238 to 240
Cc1cc2c(-c3ccccc3F)nc(=O)[nH]c2s1	282 to 284
CC1(C)OC(=O)N(c2cccc(C#CC#N)c2)c2ccccc21	212 to 213
O=C(COc1ccc(Cl)cc1)N1CCc2occc2C1CN1CCC(O)C1 (configuration not stated)	43 to 45
O=C(Nc1ccc2[nH]c(=O)c(=O)[nH]c2c1)C(F)(F)F	> 330
COCCCn1c(CO)c(Br)c2c3c(c(-c4ccccc4Cl)cc21)C(=O)NC3=O	178 to 180
CC(C)(O)c1ccc(-c2cnc3[nH]c(=O)n(CCC4CCOCC4)c3n2)cn1	132 to 133
O=C1OCCC1N1CCCC1=O (configuration not stated)	80 to 81
C[C@@H](n1cnc2cc(-c3ccc(S(C)(=O)=O)cc3)sc2c1=O)[C@](O)(Cn1cncn1)c1ccc(F)cc1F	281 to 282

Structure (SMILES)	melting point [°C]
Cc1oc2c(Br)cc(C(CCOS(C)(=O)=O)CCOS(C)(=O)=O)cc2c1C	154 to 156
CCN(CC)CCn1c2c(c3ccccc31)CCS(=O)(=O)CCC2	118 to 120
O=C1NN=C(c2ccc3c(c2)CCN(C2CCC2)CC3)C2CCCC12 (configuration not stated)	198 to 201
CC(C)C1(C)N=C(c2ccc(C(C)(C)O)cn2)NC1=O (configuration not stated)	166 to 168
CSc1nnc2c(=O)c3ccc(C)cc3ccn12	178 to 179
C[C@@H](NC(=O)c1ccc(-c2ccc(Cl)cc2)cc1)[C@](O)(Cn1cncn1)c1ccc(F)cc1F	173 to 174
FCC1(CF)OC1(CBr)c1cc(C(F)(F)F)ccc1Cl (configuration not stated)	54 to 55
CN1CCN(c2ccc(Nc3nc(N)c(C(=O)c4c(F)cccc4F)s3)cc2)CC1	168 to 170
O=S1(=O)Cc2ccc(F)cc2C(c2ccc(F)cc2)=NN1	196 to 200
CN(C)C(=O)n1nc(C(C)(C)C)cc1S(C)=O (configuration not stated)	95 to 96
CS(=O)(=O)c1ccc(-c2cc(CO)nn2CC2CCCCC2)cc1	104
N#Cc1nc(Cl)c(Cl)c(NN)c1Cl	178 to 181
O=C(Nc1ccc(Cl)c(C(F)(F)F)c1)N1COc2cc(Oc3ccnc(Cl)n3)ccc21	140 to 142
COC(=O)C1=CC(C)(N)NC(C2CC2)=N1 (configuration not stated)	152 to 153
COc1cc2ccc(-c3ccc(C(C)C)cc3)cc2oc1=O	127
CC(=O)N1CCC(c2ccc(S(=O)(=O)Cl)cc2)CC1	133 to 134
COc1cc(Nc2c(C#N)cnc3cc(-c4ccc(CN5CCN(CCO)CC5)o4)ccc23)c(Cl)cc1Cl	176 to 181
Cc1cccc(C)c1NC1=NCCN1	155 to 156
FC(F)(F)c1csc(I)n1	35.5 to 36
CCCCCCCCCCC[C@@H]1CC(=O)CC(=O)O1	82 to 85
O=c1cc(-c2ccncn2)nc2n1CCCCC2	148 to 150
CC(=O)c1ccc2c(c1)OC(C(=O)O)CO2 (configuration not stated)	167 to 168
C#Cc1cccc(Nc2nc(Nc3cccc(C#C)c3)nc(-c3ccccc3)n2)c1	210
CCCc1nc2c(N)nc3cc(Br)ccc3c2n1CC1CCN(C(=O)OC(C)(C)C)CC1	134 to 137
Cc1nc(-c2ccccc2Cl)sc1-c1ccccc1	63 to 65
CCNc1c(C#N)cnn1-c1c(F)c(F)c(C(F)(F)F)c(F)c1F	168
CC(=O)OC1CC(=O)C2(C)CCC3C(CCC4CC(=O)CC(C)(O)C43C)C12 (configuration not stated)	170

Next, values leading:

melting point [°C]	Structure (SMILES)
191 to 192	Cc1cc(-c2ccccc2)nc(-c2cccc([N+](=O)[O-])c2)c1C(=O)O
102 to 104	COC(=O)COc1cccc(CCNC(=O)/C=C/c2cccnc2)c1
110 to 113	N#CC1(Sc2ccccc2)Cc2cc3c(cc21)N(C(=O)Nc1cccnc1)CC3 (configuration not stated)
> 250	Cc1ccc(S(=O)(=O)Nc2nc(-c3cccc(C#N)c3)cs2)cc1
123 to 125	COc1c(O)ccc(C(=O)c2ccccc2)c1Cl
199 to 201	CCNC(=S)NC1=Nc2ccc(OC(F)(F)F)cc2SC1
92 to 93	COc1cccc(CC(=O)O)c1OCCCc1ccc(OC(C)C)cc1Oc1ncc(Cl)cc1Cl
172 to 173	COC(=O)c1c(C(=O)OC)c2sc3ccccc3n2c1-c1ccc(Cl)cc1
137 to 139	COC(=O)c1cccc(Oc2cccc(-c3nn(Cc4ccc(C(F)(F)P(=O)(O)O)c(F)c4)c(=Nc4ccc(Cl)c(Cl)c4)s3)c2)c1
209	O=C(NC1=Nc2cc(OCCn3cccc3)ccc2C2=NCCN12)c1cccnc1
235 to 237	COC(=O)C(C)(C)c1ccc(C(=O)Nc2cn3c4c(ccc3n2)OCC4)cc1
197 to 198	CCCCOc1c(CNC(=O)OC(C)(C)C)n(CC2CC2)c(=O)c2ccc(C(=O)O)cc12
85 to 88	CCOc1cc(OC)c(C(=O)C=Cc2ccc(OC)cc2)c(OP(=O)(O)O)c1
213 to 214	Cc1[nH]c2ccccc2c1C(=O)C(=O)N1CCC(Oc2ccc(F)cc2)CC1
76 to 77	CC(C)c1ccc(C(=O)C2CCN(Cc3ccccc3)CC2)cc1
212 to 215	NC(=O)c1ccc(-c2ccc3nnn(Cc4ccc5ncccc5c4)c3n2)cc1Cl
117 to 119	CCCc1nc(C=O)c(C(=O)OCC)n1Cc1ccc(-c2ccccc2C(=O)OC(C)(C)C)cc1
152 to 156	Nc1nc(NCCNCC(O)COc2ccccc2)c2ccccc2n1 (configuration not stated)
142	Cc1cc(C)nc(Oc2cccc(Oc3ncc(Cl)cn3)c2)n1
177 to 180	FC(F)(F)c1ccc2c(c1)ncn2-c1cccc(-n2ccnc2)c1
143 to 144	Cc1nccn1C(=O)c1ccccc1

melting point [°C]	Structure (SMILES)
91	COc1ccc2c(c1)CC(C(=O)NCCOc1ccc(C(=O)O)cc1)N2S(=O)(=O)c1ccc(-c2ccc(F)cc2F)cc1 (configuration not stated)
234	COc1ccc2[nH]cc(/C(C#N)=C/c3cccc(C(N)=O)c3)c2c1
70 to 71	COC(=O)c1ccc2cccc3c2c1-c1ccccc1-3
296 to 302	Cc1c(-c2ccccc2)[nH]c2ccc(Cl)cc2c1=O
168 to 169	COc1ccc(C(=O)Nc2cc(NC(=O)c3cccc(N(C)S(C)(=O)=O)c3)ccc2C)cc1OC
222 to 225	CC(C)c1cccc(C(C)C)c1NC(=O)Nc1ccc(Oc2ccc3nc(COc4ccc(CC5SC(=O)NC5=O)cc4)n(C)c3c2)cc1 (configuration not stated)
213	O=C(Nc1ccc(Cl)cc1)c1cccc(/C=C/c2ccccn2)c1
179	COC(=O)c1cnc2n1CCc1ccccc1C2=C1CCN(CCc2ccc(OCc3ccc4ccccc4n3)cc2)CC1
158 to 159	Cc1ncc(-c2ccc(Cl)cc2)cc1C#N
> 250	Cn1ncc(C(=O)N2CCC2)c1C(=O)Nc1ccn2nc(Br)nc2c1
97 to 98	COC(=O)CCCc1cc2cc(Cl)ccc2n1S(=O)(=O)c1ccc(OC)cc1
183 to 184	Cc1cc(C(=O)NCC(N)=O)cc(-c2cccc3cc(Cc4cccc(C(F)(F)F)c4)sc23)n1
164	CCCCNC(=O)Oc1cccc(NC(=O)C=C(C)OCC)c1
39 to 42	CCOC(=O)C(=O)c1ccc(OCCCCCCc2cccc(OCc3ccccc3)c2OCc2ccccc2)cc1
176 to 177	CCOC(=O)C1=C(C)NC(c2ccc([N+](=O)[O-])cc2)=C(C(=O)OCC)C1c1cccc([N+](=O)[O-])c1 (configuration not stated)
103 to 104	FC(F)(F)c1cccc(-c2ccnc3ccnn23)c1
170	COc1ccc(-c2cn(-c3cccc(OCCCl)c3)c3ncnc(N)c23)cc1OCc1ccccc1
88	CCOC(=O)C(N=C(c1ccccc1)c1cc(Cl)ccc1NC)C(=O)OCC
163 to 164	CCOC(=O)c1c(-c2ccccc2)csc1N1C(=O)c2ccccc2C1=O
109 to 111	OCCOc1cccc2ncccc12
145 to 146	Cc1cccc2c1nc(COc1ccc(Cl)cc1)n2CCC(C)C(=O)NNCc1ccccc1 (racemic)
